Consider five molecules from patent US6500853B1, “Inhibitors of phospholipase enzymes” (Genetics Institute, LLC, priority 1998, dated 2002).

Each structure is given as a SMILES string.

Assay [1] concerns the target T1, cPLA2 (Homo sapiens, UniProt P47712).
T1 sequence (P47712 1-749): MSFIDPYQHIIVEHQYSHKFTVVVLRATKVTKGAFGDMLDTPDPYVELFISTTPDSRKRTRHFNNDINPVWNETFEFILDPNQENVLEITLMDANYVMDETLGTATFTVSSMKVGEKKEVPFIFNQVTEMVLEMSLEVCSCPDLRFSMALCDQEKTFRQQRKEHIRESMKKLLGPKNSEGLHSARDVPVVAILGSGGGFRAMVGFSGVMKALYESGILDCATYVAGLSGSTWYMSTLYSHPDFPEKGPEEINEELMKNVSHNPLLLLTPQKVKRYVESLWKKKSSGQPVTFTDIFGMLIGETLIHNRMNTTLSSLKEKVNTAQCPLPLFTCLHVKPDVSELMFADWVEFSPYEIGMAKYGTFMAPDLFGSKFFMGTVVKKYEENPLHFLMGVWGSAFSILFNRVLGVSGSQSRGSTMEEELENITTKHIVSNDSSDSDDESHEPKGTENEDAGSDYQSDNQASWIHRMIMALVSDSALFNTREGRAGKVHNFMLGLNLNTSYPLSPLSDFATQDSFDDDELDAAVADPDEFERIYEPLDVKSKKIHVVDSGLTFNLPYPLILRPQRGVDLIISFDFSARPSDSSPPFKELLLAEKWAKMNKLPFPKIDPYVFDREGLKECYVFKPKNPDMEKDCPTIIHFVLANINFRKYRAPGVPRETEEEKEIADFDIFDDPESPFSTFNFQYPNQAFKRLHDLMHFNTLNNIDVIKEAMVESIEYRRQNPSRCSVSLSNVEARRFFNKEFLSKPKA
Put plainly: Coumarin Assay (cPLA2 inhibition). It counts as biochemical. The procedure, abridged: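 Percent inhibition at the stated concentration, from the rate of 460 nm emission rise (360 nm excitation) per minute. Reaction started by adding 4 μg enzyme to compound and 60 μM 7-hydroxycoumarinyl 6-heptenoate in Hepes buffer pH 7.5 with 1 mM EDTA.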

Assay [2] relates to Rat Carrageenan-Induced Footpad Edema. As to the kind of experiment: Rat Carrageenan-Induced Footpad Edema Test. It counts as in vivo, male Sprague Dawley rats. As to conditions: footpad volume 3 hours after carrageenan; for inhibition in vivo at 2 mg/kg / inhibition in vivo at 10 mg/kg: po. For orientation: Carrageenan injected into the paw causes an acute inflammation.
Where [3] appears, read: Rattus norvegicus, 3 h, PO, 2 mg/Kg, read-out: PERCENT INHIBITION
Where [4] appears, read: Rattus norvegicus, 3 h, PO, 10 mg/Kg, read-out: PERCENT INHIBITION

For orientation: inhibition means the percentage by which the read-out fell short of the control. For `O=C(O)/C=C/c1cn(C(c2ccccc2)c2ccccc2)c2ccc([N+](=O)[O-])cc12` [Example 87A, (E)-3-{1-benzhydryl-5-nitro-1H-indol-3-yl}-2-propenoic acid], in assay [1] (CONCENTRATION 50 micromolar, read-out: PERCENT INHIBITION @), the inhibition at 50 µM is 33%. Further, the inhibition at 95 µM in assay [1] (CONCENTRATION 95 micromolar, read-out: PERCENT INHIBITION @) amounted to 50%. In addition, the inhibition in vivo at 2 mg/kg in assay [2] (setting [3]) was determined as 12.9%. Moreover, the inhibition in vivo at 10 mg/kg in assay [2] (setting [4]) came to 25.4%.

Turning to `COc1cc(C(=O)O)ccc1Cc1cn(C(c2ccccc2)c2ccccc2)c2ccc(NC(=O)C3CCCC3)cc12` [Example 11, 4-({1-benzhydryl-5-[(cyclopentylcarbonyl)amino]-1H-indol-3-yl}methyl)-3-methoxybenzoic acid], the inhibition at 10 µM in assay [1] (CONCENTRATION 10 micromolar, read-out: PERCENT INHIBITION @) stood at 42%. Further, the inhibition at 12 µM in assay [1] (CONCENTRATION 12 micromolar, read-out: PERCENT INHIBITION @) came out at 50%. Besides, in assay [1] (CONCENTRATION 12.5 micromolar, read-out: PERCENT INHIBITION @), the inhibition at 12.5 µM is 52%. For the same molecule, the inhibition at 20 µM in assay [1] (CONCENTRATION 20 micromolar, read-out: PERCENT INHIBITION @) was found to be 36%. Also, in assay [1] (CONCENTRATION 27.5 micromolar, read-out: PERCENT INHIBITION @), the inhibition at 27.5 µM amounted to 50%. In addition, the inhibition at 30 µM in assay [1] (CONCENTRATION 30 micromolar, read-out: PERCENT INHIBITION @) worked out at 50%. In addition, in assay [1] (CONCENTRATION 37 micromolar, read-out: PERCENT INHIBITION @), the inhibition at 37 µM is 50%. Also, the inhibition in vivo at 5 mg/kg in assay [2] (Rattus norvegicus, iv, 3 h, IV, 5 mg/Kg, read-out: PERCENT INHIBITION) is 14%.

Take `COc1cc(C(=O)NS(=O)(=O)c2cccc3c(N(C)C)cccc23)ccc1Cc1cn(C(c2ccccc2)c2ccccc2)c2ccc(NC(=O)OC3CCCC3)cc12` [Example 30]: the “PERCENT INHIBITION @” value worked out at 50% in assay [1] (CONCENTRATION 8 micromolar), 46% in assay [1] (CONCENTRATION 20 micromolar), 50% in assay [1] (CONCENTRATION 21 micromolar) and 50% in assay [1] (CONCENTRATION 24 micromolar). Further, the “PERCENT INHIBITION” value in assay [2] (IV, 5 mg/Kg) is reported as 13.89%; in assay [2] (PO, 2 mg/Kg) it was −0.11%; in assay [2] (PO, 10 mg/Kg), 13.25%.

`COc1cc(C(=O)O)ccc1Cc1cn(C(c2ccccc2)c2ccccc2)c2ccc(C)cc12` [Example 15, 4-[(1-benzhydryl-5-methyl-1H-indol-3-yl)methyl]-3-methoxybenzoic acid]: in assay [1] (CONCENTRATION 0.65 micromolar, read-out: PERCENT INHIBITION @), the inhibition at 0.65 µM was 50%. Besides, in assay [1] (CONCENTRATION 0.72 micromolar, read-out: PERCENT INHIBITION @), the inhibition at 0.72 µM was determined as 50%. Besides, in assay [1] (CONCENTRATION 0.76 micromolar, read-out: PERCENT INHIBITION @), the inhibition at 0.76 µM came out at 50%. In addition, in assay [1] (CONCENTRATION 0.85 micromolar, read-out: PERCENT INHIBITION @), the inhibition at 0.85 µM is 50%. Moreover, the inhibition at 6.25 µM in assay [1] (CONCENTRATION 6.25 micromolar, read-out: PERCENT INHIBITION @) was determined as 90%. The inhibition in vivo at 2 mg/kg in assay [2] (setting [3]) worked out at 7.05%. For the same molecule, the inhibition in vivo at 10 mg/kg in assay [2] (setting [4]) came out at 6.88%.

Turning to `O=C(Nc1ccc2c(c1)c(Cc1ccc(C(=O)NS(=O)(=O)C(F)(F)F)cc1)cn2C(c1ccccc1)c1ccccc1)OC1CCCC1` [Example 54], the “PERCENT INHIBITION @” value in assay [1] (CONCENTRATION 2.8 micromolar) and in assay [1] (CONCENTRATION 3.9 micromolar) was 50% each time. The “PERCENT INHIBITION” value is reported as 2.47% in assay [2] (PO, 2 mg/Kg) and 14.29% in assay [2] (PO, 10 mg/Kg).
